This is an account of results in patent EP0199291A1 (priority 1985, dated 1986).

For one data set, the system named is TNP-C3H. The settings on record: for cytotoxische Aktivität (% 51Cr-Freisetzung): Stimulans und Target TNP-C3H, 1 x 10^-2 mol/l, 5 days.
For another data set, the system named is C57BL/6. The settings on record: Stimulans und Target C57BL/6, 1 x 10^-2 mol/l, 5 days.
Data set [1] deals with con-A-aktivierte C3H Milzzellen. The note with it: 9 x 10^-3 mol/l; Con A 5 µg/ml; 24 h (Fig. 5).
Protocol: (§1) Die IL 2 Titer wurden mit der IL 2 abhängigen W-2 T-Zelllinie in bekannter Weise bestimmt.
(§2) Die resultierenden Überstände wurden dann durch Zentrifugation isoliert und auf Interleukin-2 und Interferon- Aktivität getestet, wie im Methodenteil beschrieben.
Ansteigende Konzentrationen von Ornithin wurden Kulturen von con-A-aktivierten Konzentrationen von Ornithin C3H Milzzellen (10^7 Zellen + 5 µg con-A pro ml) zugesetzt. Die erhaltenen Überstände wurden 24 h später isoliert und auf Interleukin-2 und Interferonaktivität getestet.
The subject of data set [2] is PMA-aktivierte EL-4 Thymomzellen. The note with it: same concentrations as in Fig. 5.
Protocol: as §1
Die Überstände werden aus einer IL-2 produzierenden EL-4 Thymom-Sublinie nach Induktion mit Phorbolmyristinacetat (PMA) in bekannter Weise erhalten. Es wurden 10^6 EL-4 Zellen pro ml zusammen mit 10 ng/ml PMA (SIGMA) 48 h inkubiert. Die Überstände wurden gesammelt und bei -20°C gefroren gelagert.
as §2
In data set [3] the test system is IL 2 abhängige W-2 T-Zelllinie. The settings on record: control solutions with increasing amounts in culture medium.
Protocol: as §1
Ansteigende Konzentrationen von Ornithin wurden Kulturen von con-A-aktivierten Konzentrationen von Ornithin C3H Milzzellen (10^7 Zellen + 5 µg con-A pro ml) zugesetzt. Die erhaltenen Überstände wurden 24 h später isoliert und auf Interleukin-2 und Interferonaktivität getestet. […] C3H Milzzellkulturen mit l ug/ml con-A sowie allogene "Genischte-Lymphozyten-Kulturen" mit 10^7 nicht-bestrahltenC3H Milzzellen' plus 10^7 nicht- bestrahltenC57BL/6 Milzzellen wurden eben- falls mit steigenden Konzentrationen von Ornithin angesetzt.
Setting [4] is: Angreifer:Targetzellen 1:1, control without additive 16,3.
The mark [5] stands for this setting: Angreifer:Targetzellen 5:1, control without additive 32,0.
Where [6] appears, read: Angreifer:Targetzellen 25:1, control without additive 54,9.
The mark [7] stands for this setting: summary statement, see Tabelle I.
Setting [8] is: Angreifer:Targetzellen 1:1, control without additive 4,8.
The mark [9] stands for this setting: Angreifer:Targetzellen 5:1, control without additive 17,7.
The mark [10] stands for this setting: Angreifer:Targetzellen 25:1, control without additive 33,5.

Where two headings read alike, the source gives them in different places.

Protocol for C57BL/6: (§3) 20 Millionen Responderzellen (üblicherweise C3H Milzzellen)wurden mit 1×10^6 bestrahlten (1500 rad) allogenen oder trinitrophenylierten syngenen Stimulatorzellen in einem Gesamtvolumen von 4,5 ml Kulturmedium (RPMI 1640, GIBCO Medium supplementiert mit 10mM L-Gutamin (GIBCO), Streptomycin/Penicillin (GIBCO), Streptomycin/ Penicillin (GIBCO; 100 units/ml), 0,5 % HEPES (GIBCO), 10% fötalem Kälberserum (GIBCO) und 3×10^-5 Mol/l 2-Mercaptoäthanol) 5 Tage bei 37°C in 5% CO2 incubiert. Responder-und Stimulatorzellen waren Milzzellen.
(§4) Die Kulturen wurden nach 5 Tagen auf cytotoxische Aktivität gegen Con A-aktivierte allogene oder trinitrophenylierte syngene Milzlynphoblasten in einem 4-Stunden 51Cr-Release assay in bekanntem Weise getestet.
(§5) Der Effekt in vitro (mittlere und rechte Zeichnung der Fig. 1) wurde wie folgt bestimmt: • C3H Milzzellen (2 x 10^7) wurden mit 1 x 10^6 bestrahlten und Trinitrophenylen-behandelten C3H Milzzellen (Mitte) oder 1 x 10^6 bestrahlte C57BL/6 Milzzellen (rechts) und mit den angegebenen Endkonzentrationen von Ornithin in 4,5 ml Kulturen 5 Tage inkubiert. Die cytotoxische Aktivität gegen die entsprechenden Targetzellen wurde nach 5 Tagen getestet.
(§6) C3H Milzzellen (2 x 10^7) wurden mit 1 x 10^6 bestrahlten und Trinitrophenylen-behandelten C3H Milzzellen (links) oder 1 x 10^6 bestrahlten C57BL/6 Milzzellen (rechts) in 4,5 ml Kulturen 5 Tage inkubiert. […] Die Abszisse zeigt die Endkonzentration von Ornithin in der Kultur. Die cytotoxische Aktivität gegen die entsprechenden Targetze1len wurde nach 5 Tagen bei Angreifer: Ziel-Zellen-Verhältnissen von 25:1, 5:1 und 1:1 untersucht. Figur 3 zeigt die relative cytotoxische Aktivität beim Angreifer: Ziel-Zellen-Verhältnis 25:1. (Die Kontrollantwort ohne Ornithin zeigte 54% (links) bzw. 50% (rechts) ^51Cr-release).
(§7) Die Ergebnisse geben die cytotoxische Aktivität (% ^51Cr-Freisetzung) gegen homologe Targetzellen nach 5 Tagen bei Angreifer:Targetzel len-Verältnissen von 25:1, 5:1 und 1:1 an.
Protocol for TNP-C3H: as §3, §4, §5, §6, §7

Take `C[C@H](N)C(=O)O` [L-Alanin]: in the data set with TNP-C3H, the “Hemmwirkung auf die Aktivierung cytotoxischer T-Lymphozyten” value was “nicht zu beobachten”.

Regarding `N[C@@H](Cc1c[nH]cn1)C(=O)O` [L-Hystidin, L-Histidin], the “cytotoxische Aktivität (% 51Cr-Freisetzung)” value is given as 11,1% with TNP-C3H (setting [4]); 27,8% with TNP-C3H (setting [5]); 48,5% in the data set on TNP-C3H (setting [6]); 5,1% in the data set with C57BL/6 (setting [8]); 11,4% in the data set on C57BL/6 (setting [9]); 24,5% with C57BL/6 (setting [10]). Moreover, the “Hemmwirkung auf die Aktivierung cytotoxischer T-Lymphozyten” value in the data set on TNP-C3H (setting [7]) is reported as “nicht zu beobachten”.

On to `NCCCC[C@H](N)C(=O)O` [L-Lysin], for which the “cytotoxische Aktivität (% 51Cr-Freisetzung)” value is given as 21,5% in the data set on TNP-C3H (setting [4]); 39,9% with TNP-C3H (setting [5]); 60,7% in the data set with TNP-C3H (setting [6]); 9,0% in the data set on C57BL/6 (setting [8]); 19,1% in the data set on C57BL/6 (setting [9]); 41,7% in the data set on C57BL/6 (setting [10]). The “Hemmwirkung auf die Aktivierung cytotoxischer T-Lymphozyten” value in the data set with TNP-C3H (setting [7]) is reported as “nicht zu beobachten”.

Regarding `NCCC[C@H](N)C(=O)O` [L-Ornithin], in data set [1], the “Effekt auf die Produktion von IL-2” value is “keinen wesentlichen Effekt”. The “Interleukin-2-Produktion von PMA-aktivierten EL-4 Thymomzellen” value in data set [2] is given as “nicht supprimiert”. In addition, the “Interleukin-2-Aktivität (of the substance itself)” value in data set [3] was “keine Interleukin-2 oder Interferon-Aktivität”.

On to `NCCCCN` [Putrescin], for which, in the data set on TNP-C3H, the “Hemmwirkung auf die Aktivierung cytotoxischer T-Lymphozyten” value is listed as “nicht zu beobachten”.
